The target in test [1] is T1, human GLP-1R (Homo sapiens, UniProt P43220, G168S).
T1 construct: expressed in transfected cells
Briefly: CHO GLP-1R Clone H6 - Assay 1 (HTRF cAMP agonist assay). It is filed as cell-based. The note with it: for EC50: CHO Clone H6, high GLP-1R density, cAMP, geometric mean; for Emax: CHO Clone H6, relative to saturating full agonist GLP-1 7-36 (1 μM), arithmetic mean. Summed up: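 CHO Clone H6 cells stably expressing human GLP-1R (G168S) were plated 48 h, then given compound for 30 min at 37° C in HBSS/0.1% BSA/HEPES with 100 μM IBMX and 1% DMSO. cAMP was measured by HTRF against a standard curve.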

Test [2] concerns the target T2, human GLP-1R (Homo sapiens, UniProt P43220, L260F).
T2 construct: expressed in transfected cells; host or cells: CHO Flp-In T-REx, clonal line C6 (pcDNA5-FRT-TO)
Briefly: CHO GLP-1R Clone C6 - Assay 2 (HTRF cAMP agonist assay). It is filed as cell-based. The note with it: for EC50: CHO clone C6, low GLP-1R density, cAMP, geometric mean; for Emax: CHO clone C6, relative to saturating full agonist GLP-1 (1 μM), arithmetic mean. Background: TR-FRET usually uses a lanthanide donor and a delayed reading to cut background.

This note sets out measurements from patent publication US12331041B2, “GLP-1 receptor agonists and uses thereof” (Pfizer Inc., priority 2018, dated 2025).

Counter-ions that a name gives are not always drawn.

T2 sequence (P43220 24-463 L260F): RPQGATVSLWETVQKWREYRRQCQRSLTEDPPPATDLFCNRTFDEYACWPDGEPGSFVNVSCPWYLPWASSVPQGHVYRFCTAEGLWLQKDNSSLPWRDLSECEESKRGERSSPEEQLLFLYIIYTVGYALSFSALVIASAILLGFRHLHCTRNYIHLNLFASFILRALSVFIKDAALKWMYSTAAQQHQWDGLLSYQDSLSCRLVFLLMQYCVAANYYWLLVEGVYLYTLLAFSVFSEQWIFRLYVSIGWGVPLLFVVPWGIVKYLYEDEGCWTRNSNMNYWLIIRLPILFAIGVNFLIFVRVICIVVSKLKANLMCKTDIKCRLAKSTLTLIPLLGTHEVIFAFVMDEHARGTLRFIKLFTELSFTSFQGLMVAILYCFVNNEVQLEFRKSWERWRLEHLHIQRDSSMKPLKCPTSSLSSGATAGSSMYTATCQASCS
T1 sequence (P43220 24-463 G168S): as the sequence (P43220 24-463 L260F) above, with G145S, F237L counted along it

On human GLP-1R [1], `O=C(O)c1ccc2nc(CN3CCC(c4ccnc(OCc5ccc(Cl)cc5F)n4)CC3)n(Cc3ncco3)c2c1` [Example 68, 2-[(4-{2-[(4-chloro-2-fluorobenzyl)oxy]pyrimidin-4-yl}piperidin-1-yl)methyl]-1-(1,3-oxazol-2-ylmethyl)-1H-benzimidazole-6-carboxylic acid, trifluoroacetate salt] yielded an EC50 of 8.3 nM and an Emax of 77%. At human GLP-1R [2], this compound came in with an EC50 of 310 nM and an Emax of 92%.
Taken in the same sequence, the figures for `C[C@H]1CN(c2nc(OCc3ccc(Cl)cc3F)ncc2F)CCN1Cc1nc2ccc(C(=O)O)cc2n1C[C@@H]1CCO1` [Example 69, Ammonium 2-{[(2S)-4-{2-[(4-chloro-2-fluorobenzyl)oxy]-5-fluoropyrimidin-4-yl}-2-methylpiperazin-1-yl]methyl}-1-[(2S)-oxetan-2-ylmethyl]-1H-benzimidazole-6-carboxylate] were 0.91 nM, 89%, 18 nM and 110%.
On human GLP-1R [1], `C[C@H]1CN(c2nc(OCc3ccc(Cl)cc3F)ncc2F)CCN1Cc1nc2ccc(C(=O)O)cc2n1C[C@@H]1CCCO1` [Example 71, 2-{[(2S)-4-{2-[(4-chloro-2-fluorobenzyl)oxy]-5-fluoropyrimidin-4-yl}-2-methylpiperazin-1-yl]methyl}-1-[(2S)-tetrahydrofuran-2-ylmethyl]-1H-benzimidazole-6-carboxylic acid] returned a half-maximal effective concentration (EC50) of 8.9 nM and an Emax of 82%. In addition, at human GLP-1R [2], the EC50 is 160 nM and the maximal effect (Emax) stood at 90%.
At human GLP-1R [1], `O=C(O)c1ccc2nc(CN3CCN(c4nc(OCc5ccc(Cl)cc5F)ncc4F)CC3)n(C[C@@H]3CCO3)c2c1` [Example 72, 2-[(4-{2-[(4-chloro-2-fluorobenzyl)oxy]-5-fluoropyrimidin-4-yl}piperazin-1-yl)methyl]-1-[(2S)-oxetan-2-ylmethyl]-1H-benzimidazole-6-carboxylic acid] showed a half-maximal effective concentration (EC50) of 6 nM and an Emax of 96%. On human GLP-1R [2], this compound had an EC50 of 120 nM and a maximal effect (Emax) of 130%.
Consider `C[C@H]1CN(c2ccnc(OCc3ccc(Cl)cc3F)n2)CCN1Cc1nc2ccc(C(=O)O)cc2n1C[C@@H]1CCO1` [Example 73, 2-{[(2S)-4-{2-[(4-chloro-2-fluorobenzyl)oxy]pyrimidin-4-yl}-2-methylpiperazin-1-yl]methyl}-1-[(2S)-oxetan-2-ylmethyl]-1H-benzimidazole-6-carboxylic acid], for which the values for the EC50 at human GLP-1R [1] and at human GLP-1R [2] were 2.4 nM and 89 nM, respectively. The figures for the Emax on human GLP-1R [1] and at human GLP-1R [2] were 84% and 100%, respectively.
On human GLP-1R [1], `COCCn1c(CN2CCN(c3ccnc(OCc4ccc(Cl)cc4F)n3)[C@H](C)C2)nc2ccc(C(=O)O)cc21` [Example 74, 2-{[(3R)-4-{2-[(4-chloro-2-fluorobenzyl)oxy]pyrimidin-4-yl}-3-methylpiperazin-1-yl]methyl}-1-(2-methoxyethyl)-1H-benzimidazole-6-carboxylic acid, trifluoroacetate salt] gave an EC50 of 500 nM and an Emax of 86%. At human GLP-1R [2], this compound showed an EC50 of 11000 nM and a maximal effect (Emax) of 96%.
As to `C[C@@H]1CN(c2ccnc(OCc3ccc(Cl)cc3F)n2)CCN1Cc1nc2ccc(C(=O)O)cc2n1C[C@@H]1CCO1` [Example 75, ammonium 2-{[(2R)-4-{2-[(4-chloro-2-fluorobenzyl)oxy]pyrimidin-4-yl}-2-methylpiperazin-1-yl]methyl}-1-[(2S)-oxetan-2-ylmethyl]-1H-benzimidazole-6-carboxylate], the EC50 at human GLP-1R [1] came out at 21 nM; on human GLP-1R [2] it was 370 nM. In addition, the results for the Emax on human GLP-1R [1] and on human GLP-1R [2] were 88% and 100%, respectively.
On human GLP-1R [1], `C[C@@H]1CN(Cc2nc3ccc(C(=O)O)cc3n2C[C@@H]2CCO2)[C@@H](C)CN1c1ccnc(OCc2ccc(Cl)cc2F)n1` [Example 76, ammonium 2-{[(2S,5R)-4-{2-[(4-chloro-2-fluorobenzyl)oxy]pyrimidin-4-yl}-2,5-dimethylpiperazin-1-yl]methyl}-1-[(2S)-oxetan-2-ylmethyl]-1H-benzimidazole-6-carboxylate] showed a concentration for a half-maximal effect (EC50) of 12 nM and an Emax of 88%. Moreover, at human GLP-1R [2], it took 180 nM to reach a half-maximal effect (EC50) and the Emax was determined as 100%.
Consider `C[C@H]1CN(c2ccnc(OCc3ccc(Cl)cc3F)n2)CCN1Cc1nc2ccc(C(=O)O)nc2n1C[C@@H]1CCO1` [Example 77, 2-{[(2S)-4-{2-[(4-chloro-2-fluorobenzyl)oxy]pyrimidin-4-yl}-2-methylpiperazin-1-yl]methyl}-3-[(2S)-oxetan-2-ylmethyl]-3H-imidazo[4,5-b]pyridine-5-carboxylic acid], for which the EC50 amounted to 4.4 nM at human GLP-1R [1] and 110 nM at human GLP-1R [2]. For the same compound, the maximal effect (Emax) at human GLP-1R [1] is 100%; on human GLP-1R [2], 110%.
Take `C[C@H]1CN(c2ccnc(OCc3ccc(Cl)cc3F)n2)CCN1Cc1nc2ccc(C(=O)O)cc2n1Cc1ncco1` [Example 78, 2-{[(2S)-4-{2-[(4-chloro-2-fluorobenzyl)oxy]pyrimidin-4-yl}-2-methylpiperazin-1-yl]methyl}-1-(1,3-oxazol-2-ylmethyl)-1H-benzimidazole-6-carboxylic acid, trifluoroacetate salt]: at human GLP-1R [1], the EC50 is 17 nM and the Emax was found to be 79%. For the same compound, at human GLP-1R [2], the EC50 was determined as 440 nM and the Emax stood at 81%.

The EC50 is the concentration that produces a half-maximal response. A low value points to higher potency in that assay. The Emax is the size of the effect at its maximum, as opposed to the concentration needed.
